Source: ChEMBL document CHEMBL4837257, “Discovery of the Oxadiazine FRM-024: A Potent CNS-Penetrant Gamma Secretase Modulator” (J Med Chem, 2021)
Activity calls are given as the source filed them. The rule behind the calls is not given here.

Experiments:
[1] = target: Cytochrome P450 2C9 (Homo sapiens, UniProt P11712); assay: Inhibition of CYP2C9 (unknown origin); type: ADME
[2] = Drug metabolism in rat hepatocytes assessed as mono and di-oxidative metabolites formation after 4 hrs; type: ADME, cell-based, Hepatocyte
[3] = target: 5-hydroxytryptamine receptor 2B (Homo sapiens) (UniProt P41595); assay: Inhibition of serotonin 2B receptor (unknown origin) at 10 uM relative to control
[4] = target: T1, Cytochrome P450 1A2 (Homo sapiens, UniProt P05177); assay: Inhibition of CYP1A2 (unknown origin); type: ADME
T1 sequence (P05177 whole entry): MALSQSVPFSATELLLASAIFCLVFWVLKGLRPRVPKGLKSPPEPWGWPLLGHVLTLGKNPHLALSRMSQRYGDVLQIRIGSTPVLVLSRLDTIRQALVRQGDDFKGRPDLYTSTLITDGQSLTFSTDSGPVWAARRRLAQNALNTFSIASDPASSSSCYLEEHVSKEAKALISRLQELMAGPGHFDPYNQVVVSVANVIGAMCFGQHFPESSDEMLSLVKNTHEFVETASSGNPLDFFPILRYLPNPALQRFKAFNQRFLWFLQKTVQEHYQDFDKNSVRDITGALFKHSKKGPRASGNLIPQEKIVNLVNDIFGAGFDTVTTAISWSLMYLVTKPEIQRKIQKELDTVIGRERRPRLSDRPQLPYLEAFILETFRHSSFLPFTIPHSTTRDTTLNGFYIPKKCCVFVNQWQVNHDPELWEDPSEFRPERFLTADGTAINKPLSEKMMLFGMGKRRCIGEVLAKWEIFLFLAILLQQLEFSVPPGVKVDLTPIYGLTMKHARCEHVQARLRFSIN

[5] = tested on: Rattus norvegicus; assay: In vivo modulation of gamma secretase in rat assessed as reduction in Abeta42 levels in brain at 30 mg/kg, po measured after 6 hrs by ELISA relative to control; type: functional; design: scale not given: the % may be the effect or the level left
[6] = Bioavailability in rat at 1 mg/kg, iv; type: ADME, organism-based; conditions: in vivo
[7] = Half life in rat at 1 mg/kg, iv; type: ADME, organism-based; conditions: in vivo
[8] = In vivo modulation of gamma secretase in nonhuman primate assessed as reduction in Abeta42 levels in CSF at 30 mg/kg, po measured after 12 hrs by ELISA relative to control; type: functional, Primates, Cerebrospinal fluid; design: scale not given: the % may be the effect or the level left
[9] = Volume of distribution at steady state in nonhuman primate at 1 mg/kg, iv; type: ADME, organism-based; conditions: primates, in vivo, read-out: Vdss
[10] = target: Cytochrome P450 2C19 (Homo sapiens, UniProt P33261); assay: Inhibition of CYP2C19 (unknown origin); type: ADME
[11] = target: T1, Cytochrome P450 1A2; assay: Inhibition of CYP1A2 in human hepatocytes upto 50 uM incubated for 72 hrs; type: ADME, cell-based, Hepatocyte
[12] = tested on: Rattus norvegicus; assay: In vivo modulation of gamma secretase in rat assessed as reduction in Abeta42 levels in CSF by measuring AUC(0 to 24 hrs) at 30 mg/kg, po by ELISA; type: functional, Cerebrospinal fluid; design: scale not given: the % may be the effect or the level left
[13] = target: Prostaglandin G/H synthase 1 (Homo sapiens) (UniProt P23219); assay: Effect on COX1 activity (unknown origin)
[14] = Toxicity in guinea pig assessed as effect on inotropy and lusitropy in heart by Langendorff test; type: tissue-based, Cavia porcellus; conditions: in vivo
[15] = AUClast in rat at 3 mg/kg, po; type: ADME, organism-based; design: time 0 - last, route oral, dose 3 mg/kg; conditions: in vivo
[16] = Toxicity in rat assessed as effect on arterial pressures by telemetry; conditions: in vivo
[17] = Toxicity in guinea pig assessed as effect on repolarization in heart by Langendorff test; type: tissue-based, Cavia porcellus; conditions: in vivo
[18] = target: Sodium-dependent serotonin transporter (Homo sapiens) (UniProt P31645); assay: Inhibition of serotonin transporter (unknown origin) at 10 uM relative to control
[19] = Bioavailability in dog at 0.5 mg/kg, iv; type: ADME, organism-based, Canis lupus familiaris; conditions: in vivo
[20] = In vivo modulation of gamma secretase in nonhuman primate assessed as reduction in Abeta42 levels in CSF by measuring AUC(0 to 48 hrs) at 30 mg/kg, po by ELISA; type: functional, Primates, Cerebrospinal fluid; design: scale not given: the % may be the effect or the level left
[21] = tested on: Rattus norvegicus; assay: In vivo modulation of gamma secretase in rat assessed as reduction in Abeta40 levels in brain by measuring AUC(0 to 24 hrs) at 30 mg/kg, po by ELISA; type: functional; design: scale not given: the % may be the effect or the level left
[22] = Unbound clearance in human hepatocytes; type: ADME, cell-based, Hepatocyte
[23] = Drug metabolism in monkey hepatocytes assessed as mono and di-oxidative metabolites formation after 4 hrs; type: ADME, cell-based, Macaca mulatta, Hepatocyte; conditions: rhesus monkey
[24] = tested on: Rattus norvegicus; assay: In vivo modulation of gamma secretase in rat assessed as reduction in Abeta37 levels in CSF by measuring AUC(0 to 24 hrs) at 30 mg/kg, po by ELISA; type: functional, Cerebrospinal fluid; design: scale not given: the % may be the effect or the level left
[25] = tested on: Rattus norvegicus; assay: In vivo modulation of gamma secretase in rat assessed as reduction in Abeta42 levels in CSF at 30 mg/kg, po measured at 9 hrs by ELISA relative to control; type: functional, Cerebrospinal fluid; design: scale not given: the % may be the effect or the level left
[26] = Half life in nonhuman primate at 1 mg/kg, iv; type: ADME, organism-based; conditions: primates, in vivo
[27] = Volume of distribution at steady state in rat at 1 mg/kg, iv; type: ADME, organism-based; conditions: in vivo, read-out: Vdss
[28] = target: Cytochrome P450 2D6 (Homo sapiens, UniProt P10635); assay: Inhibition of CYP2D6 (unknown origin); type: ADME
[29] = Drug metabolism in human hepatocytes assessed as mono and di-oxidative metabolites formation after 4 hrs; type: ADME, cell-based, Hepatocyte
[30] = Toxicity in rat assessed as effect on left ventricular filling pressures by telemetry; conditions: in vivo
[31] = Clearance in rat blood relative to hepatic blood flow; type: ADME, tissue-based
[32] = In vivo modulation of gamma secretase in nonhuman primate assessed as reduction in Abeta40 levels in CSF by measuring AUC(0 to 48 hrs) at 30 mg/kg, po by ELISA; type: functional, Primates, Cerebrospinal fluid; design: scale not given: the % may be the effect or the level left
[33] = target: Cytochrome P450 3A4 (Homo sapiens, UniProt P08684); assay: Inhibition of CYP3A4 (unknown origin); type: ADME
[34] = Toxicity in human cardiomyocyte assessed as change in cell health parameters upto 10 uM; conditions: stem cell-derived cardiomyocyte
[35] = tested on: Rattus norvegicus; assay: In vivo modulation of gamma secretase in rat assessed as reduction in Abeta40 levels in brain at 30 mg/kg, po measured at 16 hrs by ELISA relative to control; type: functional; design: scale not given: the % may be the effect or the level left
[36] = target: Gamma-secretase; assay: Inhibition of gamma secretase (unknown origin) assessed as reduction in notch cleavage; type: functional, Homo sapiens
[37] = Genotoxicity in human peripheral blood lymphocytes by micronucleus assay; type: cell-based; conditions: pbl
[38] = Apparent permeability across apical to basolateral side in MDCK-MDR1 cells; type: ADME, cell-based, Canis lupus familiaris; conditions: dog
[39] = Cmax in nonhuman primate at 10 mg/kg, po; type: ADME, organism-based; design: route oral, dose 10 mg/kg; conditions: primates, in vivo
[40] = Toxicity in guinea pig assessed as effect on signal conduction function in heart by Langendorff test; type: tissue-based, Cavia porcellus; conditions: in vivo
[41] = AUClast in dog at 10 mg/kg, po; type: ADME, organism-based, Canis lupus familiaris; design: route oral, time 0 - last, dose 10 mg/kg; conditions: in vivo
[42] = tested on: Rattus norvegicus; assay: In vivo modulation of gamma secretase in rat assessed as reduction in Abeta42 levels in brain by measuring AUC(0 to 24 hrs) at 30 mg/kg, po by ELISA; type: functional; design: scale not given: the % may be the effect or the level left
[43] = target: Vasopressin V1a receptor (Homo sapiens) (UniProt P37288); assay: Inhibition of vasopressin 1A receptor (unknown origin) at 10 uM relative to control
Chain of Vasopressin V1a receptor (Homo sapiens) (P37288 whole entry, looked up): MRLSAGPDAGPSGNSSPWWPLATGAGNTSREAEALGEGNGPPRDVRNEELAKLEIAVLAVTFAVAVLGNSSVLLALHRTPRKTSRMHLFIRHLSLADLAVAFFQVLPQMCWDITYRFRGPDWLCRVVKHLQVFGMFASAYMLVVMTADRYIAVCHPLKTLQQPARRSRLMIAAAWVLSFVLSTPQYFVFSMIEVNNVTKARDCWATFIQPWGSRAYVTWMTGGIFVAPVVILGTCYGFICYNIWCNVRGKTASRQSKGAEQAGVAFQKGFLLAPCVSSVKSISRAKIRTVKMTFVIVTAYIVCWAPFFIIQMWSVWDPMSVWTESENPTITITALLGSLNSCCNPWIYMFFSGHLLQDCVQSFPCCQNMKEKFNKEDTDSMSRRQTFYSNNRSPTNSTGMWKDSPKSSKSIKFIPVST

Chain of Sodium-dependent serotonin transporter (Homo sapiens) (P31645 whole entry, looked up): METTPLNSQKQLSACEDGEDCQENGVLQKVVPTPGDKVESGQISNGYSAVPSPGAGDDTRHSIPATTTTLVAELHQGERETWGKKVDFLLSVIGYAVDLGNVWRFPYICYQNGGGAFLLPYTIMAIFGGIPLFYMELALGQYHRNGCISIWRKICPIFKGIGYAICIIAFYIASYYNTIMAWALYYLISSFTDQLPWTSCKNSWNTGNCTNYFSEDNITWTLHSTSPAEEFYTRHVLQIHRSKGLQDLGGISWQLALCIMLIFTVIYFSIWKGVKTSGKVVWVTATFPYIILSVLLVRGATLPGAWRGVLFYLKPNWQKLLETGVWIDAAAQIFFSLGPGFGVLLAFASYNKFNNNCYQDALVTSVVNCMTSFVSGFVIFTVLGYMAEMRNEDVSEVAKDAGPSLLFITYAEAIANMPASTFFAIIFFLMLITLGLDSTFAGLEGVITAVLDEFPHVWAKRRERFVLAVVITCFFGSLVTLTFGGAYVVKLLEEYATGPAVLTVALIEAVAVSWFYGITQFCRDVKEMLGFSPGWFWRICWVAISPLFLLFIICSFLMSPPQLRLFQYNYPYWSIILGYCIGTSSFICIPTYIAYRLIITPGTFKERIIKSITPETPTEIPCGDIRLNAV
Chain of 5-hydroxytryptamine receptor 2B (Homo sapiens) (P41595 whole entry): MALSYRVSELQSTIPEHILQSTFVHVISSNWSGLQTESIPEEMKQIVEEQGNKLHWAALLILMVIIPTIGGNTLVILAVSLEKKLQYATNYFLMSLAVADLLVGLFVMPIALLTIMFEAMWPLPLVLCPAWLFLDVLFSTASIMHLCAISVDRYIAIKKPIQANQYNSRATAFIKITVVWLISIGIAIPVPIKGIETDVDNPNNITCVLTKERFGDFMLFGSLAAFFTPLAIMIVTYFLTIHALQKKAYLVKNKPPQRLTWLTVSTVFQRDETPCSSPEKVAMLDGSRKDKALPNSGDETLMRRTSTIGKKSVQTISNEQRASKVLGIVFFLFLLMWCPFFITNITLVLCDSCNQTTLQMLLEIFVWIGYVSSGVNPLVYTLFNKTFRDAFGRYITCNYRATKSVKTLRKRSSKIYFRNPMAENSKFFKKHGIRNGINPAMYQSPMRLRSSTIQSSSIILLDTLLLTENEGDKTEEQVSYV
Chain of Cytochrome P450 2C19 (P33261 whole entry): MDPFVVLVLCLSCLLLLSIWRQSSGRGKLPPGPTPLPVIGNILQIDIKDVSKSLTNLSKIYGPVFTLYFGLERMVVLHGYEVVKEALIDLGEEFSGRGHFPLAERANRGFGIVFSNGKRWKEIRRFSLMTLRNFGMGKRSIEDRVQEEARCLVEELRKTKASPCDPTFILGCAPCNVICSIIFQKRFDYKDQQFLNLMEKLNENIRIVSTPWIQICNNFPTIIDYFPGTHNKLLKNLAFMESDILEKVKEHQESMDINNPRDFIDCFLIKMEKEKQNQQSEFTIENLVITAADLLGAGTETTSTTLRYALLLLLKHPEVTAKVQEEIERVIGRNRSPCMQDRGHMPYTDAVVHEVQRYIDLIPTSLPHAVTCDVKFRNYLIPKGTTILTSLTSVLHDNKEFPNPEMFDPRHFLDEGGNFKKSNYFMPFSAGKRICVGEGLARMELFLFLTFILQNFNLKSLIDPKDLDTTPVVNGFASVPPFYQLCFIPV
Chain of Prostaglandin G/H synthase 1 (Homo sapiens) (P23219 whole entry): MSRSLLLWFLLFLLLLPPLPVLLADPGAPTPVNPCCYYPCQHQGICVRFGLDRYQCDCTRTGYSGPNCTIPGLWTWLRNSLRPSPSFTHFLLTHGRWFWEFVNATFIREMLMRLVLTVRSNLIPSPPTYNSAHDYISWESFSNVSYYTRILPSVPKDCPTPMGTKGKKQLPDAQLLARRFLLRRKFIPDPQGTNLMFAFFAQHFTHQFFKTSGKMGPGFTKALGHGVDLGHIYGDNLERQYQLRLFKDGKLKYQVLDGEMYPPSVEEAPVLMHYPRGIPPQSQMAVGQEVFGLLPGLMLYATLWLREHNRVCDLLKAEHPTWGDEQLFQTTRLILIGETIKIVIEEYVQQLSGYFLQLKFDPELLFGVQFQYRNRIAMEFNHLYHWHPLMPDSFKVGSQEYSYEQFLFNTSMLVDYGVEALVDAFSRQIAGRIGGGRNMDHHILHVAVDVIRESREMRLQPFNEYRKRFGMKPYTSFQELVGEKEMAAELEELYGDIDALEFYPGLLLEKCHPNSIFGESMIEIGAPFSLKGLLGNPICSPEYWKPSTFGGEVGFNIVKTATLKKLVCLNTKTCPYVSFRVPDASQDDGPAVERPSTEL
Chain of Cytochrome P450 2C9 (P11712 whole entry): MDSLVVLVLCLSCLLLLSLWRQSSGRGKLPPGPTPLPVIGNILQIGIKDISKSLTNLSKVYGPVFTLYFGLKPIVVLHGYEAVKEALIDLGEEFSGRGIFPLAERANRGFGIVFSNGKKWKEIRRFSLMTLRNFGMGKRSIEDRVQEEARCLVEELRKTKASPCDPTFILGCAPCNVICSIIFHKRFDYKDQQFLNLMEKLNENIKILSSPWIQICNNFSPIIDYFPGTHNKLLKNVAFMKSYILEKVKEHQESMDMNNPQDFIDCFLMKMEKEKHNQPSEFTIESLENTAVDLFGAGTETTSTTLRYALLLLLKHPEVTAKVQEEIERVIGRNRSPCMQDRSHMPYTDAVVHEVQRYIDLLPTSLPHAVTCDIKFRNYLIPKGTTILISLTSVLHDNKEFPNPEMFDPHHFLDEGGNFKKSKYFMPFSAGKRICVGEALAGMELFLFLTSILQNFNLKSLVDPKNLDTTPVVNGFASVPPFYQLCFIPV
Chain of Cytochrome P450 3A4 (P08684 whole entry): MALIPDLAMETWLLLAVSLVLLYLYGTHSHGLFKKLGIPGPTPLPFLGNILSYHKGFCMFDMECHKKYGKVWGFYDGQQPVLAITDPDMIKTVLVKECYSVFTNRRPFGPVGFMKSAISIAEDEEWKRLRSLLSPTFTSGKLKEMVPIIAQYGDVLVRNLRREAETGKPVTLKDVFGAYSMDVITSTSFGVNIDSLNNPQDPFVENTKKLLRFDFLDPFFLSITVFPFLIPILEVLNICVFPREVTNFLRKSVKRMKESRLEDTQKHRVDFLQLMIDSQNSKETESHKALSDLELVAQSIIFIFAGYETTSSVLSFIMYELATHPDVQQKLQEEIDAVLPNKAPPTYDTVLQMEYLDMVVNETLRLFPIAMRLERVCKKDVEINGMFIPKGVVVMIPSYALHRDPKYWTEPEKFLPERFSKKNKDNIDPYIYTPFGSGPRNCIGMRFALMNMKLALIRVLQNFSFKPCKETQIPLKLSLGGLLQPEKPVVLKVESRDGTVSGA
Chain of Cytochrome P450 2D6 (P10635 whole entry): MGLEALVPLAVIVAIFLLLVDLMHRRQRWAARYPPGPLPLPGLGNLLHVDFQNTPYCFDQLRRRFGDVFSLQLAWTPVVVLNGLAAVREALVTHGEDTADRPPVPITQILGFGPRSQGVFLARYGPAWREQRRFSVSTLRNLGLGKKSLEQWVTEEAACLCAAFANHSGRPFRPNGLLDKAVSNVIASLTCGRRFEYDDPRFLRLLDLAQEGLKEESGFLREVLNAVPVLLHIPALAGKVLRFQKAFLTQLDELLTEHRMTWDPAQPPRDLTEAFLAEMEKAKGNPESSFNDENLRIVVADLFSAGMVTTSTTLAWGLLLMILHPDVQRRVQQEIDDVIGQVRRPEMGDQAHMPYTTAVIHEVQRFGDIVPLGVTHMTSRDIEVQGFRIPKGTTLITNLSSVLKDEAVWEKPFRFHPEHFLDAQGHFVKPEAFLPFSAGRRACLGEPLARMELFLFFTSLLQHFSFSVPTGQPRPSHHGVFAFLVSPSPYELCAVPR

## COc1nc(C2=NOC(C3CC3)C(c3ccc(Cl)cc3)N2)ccc1-n1cnc(C)c1 (stereo not drawn)
[1]
  IC50: ≥ 14 µM
[2]
  Drug metabolism: Metabolite_Detected
[3]
  inhibition: > 50%
[4]
  IC50: ≥ 14 µM
[5]
  Activity: 56%
[6]
  bioavailability: 86%
[7]
  half-life: 8.7 h
[8]
  Activity: 92%
[9]
  Vd: 1.2 L/kg
[10]
  IC50: 9.1 µM
[11]
  inhibition (INH): Not Active
[12]
  Activity: 71%
[13]
  Activity: inactive
[14]
  Activity: Non-Toxic
[15]
  AUC(0-t): 11.6 µM·h
[16]
  Activity: Non-Toxic
[17]
  Activity: Non-Toxic
[18]
  inhibition: > 50%
[19]
  bioavailability: 66%
[20]
  Activity: 63%
[21]
  Activity: 25%
[22]
  CL free: 4 mL/min/kg
[23]
  Drug metabolism: Metabolite_Detected
[24]
  Activity: 380%
[25]
  Activity: 91%
[26]
  half-life: 3.9 h
[27]
  Vd: 2.4 L/kg
[28]
  IC50: 4.5 µM
[29]
  Drug metabolism: Metabolite_Detected
[30]
  Activity: Non-Toxic
[31]
  CL: < 20%
[32]
  Activity: 25%
[33]
  IC50: ≥ 14 µM
[34]
  Activity: Non-Toxic
[35]
  Activity: 36%
[36]
  IC50: > 10 µM
[37]
  Activity: Non-Toxic
[38]
  Papp A→B: 34 ×10⁻⁶ cm/s
[39]
  Cmax: 6.09 µM
[40]
  Activity: Non-Toxic
[41]
  AUC(0-t): 32.9 µM·h
[42]
  Activity: 39%
[43]
  inhibition: > 50%
